This is an account of results in patent US6958358B2, “Inhibitors of cruzipain and other cysteine proteases” (Amura Therapeutics Limited, priority 2001, dated 2005).

The test system of assay [1] is Trypanosoma cruzi infection. Conditions: cited from earlier work.
The target in another assay is T1, Cruzipain (Trypanosoma cruzi, UniProt P25779).
T1 construct: Wild-type cruzipain, derived from Trypanosoma cruzi Dm28 epimastigotes; tissue Dr. Julio Scharfstein (Instituto de Biofisica Carlos Chagas Filho, Universidade Federal do Rio de Janeiro); host or cells: Trypanosoma cruzi Dm28 epimastigotes
The assay is described as follows: Trypanosoma cruzi cruzipain peptidase activity assay. It counts as biochemical. The conditions noted are these: wild-type cruzipain from T. cruzi Dm28 epimastigotes; pH 6.75; 25±1° C. The procedure:
(§1) Assay protocols were based on literature precedent (Table1; Barrett, A. J., Rawlings, N. D. and Woessner, J. F., 1998, Handbook of Proteolytic Enzymes, Academic Press, London and references therein) and modified as required to suit local assay protocols. Enzyme was added as required to initiate the reaction and the activity, as judged by the change in fluorescence upon conversion of substrate to product, was monitored over time. All assays were carried out at 25±1° C.
Wild-type cruzipain, derived from Trypanosoma cruzi Dm28 epimastigotes, was obtained from Dr. Julio Scharfstein (Instituto de Biofisica Carlos Chagas Filho, Universidade Federal do Rio de Janeiro, Rio de Janeiro, Brazil). Activity assays were carried out in 100 mM sodium phosphate, pH 6.75 containing 1 mM EDTA and 10 mM L-cysteine using […] enzyme. Ac-Phe-Arg-AMC (KM^app≈12 μM) and D-Val-Leu-Lys-AMC (KM^app≈4 μM) were used as the substrates. Routinely, Ac-FR-AMC was used at a concentration equivalent to KM^app and D-Val-Leu-Lys-AMC was used at a concentration of 25 μM. The rate of conversion of substrate to product was derived from the slope of the increase in fluorescence monitored continuously over time.
The apparent inhibition constant (Ki) for each compound was determined on the basis that inhibition was reversible and occurred by a pure-competitive mechanism. The Ki values were calculated, from the dependence of enzyme activity as a function of inhibitor concentration, by direct regression analysis (Prism v 3.02) using Equation 2 (Cornish-Bowden, A., 1995.). [formula] […]
(§2) In situations where the apparent dissociation constant (Ki^app) approached the enzyme concentrations, the Ki^app values were calculated using a quadratic solution in the form described by Equation 3 (Morrison, J. F. Trends Biochem. Sci., 7, 102-105, 1982; Morrison, J. F. Biochim. Biophys. Acta, 185, 269-286, 1969; Stone, S. R. and Hofsteenge, J. Biochemistry, 25, 4622-4628, 1986). […]

A further assay deals with T2, Bovine Cathepsin S (Bos taurus, UniProt P25326).
T2 construct: purchased CN Biosciences
The assay is described as follows: Cathepsin peptidase activity assay, bovine cathepsin S. It is filed as biochemical. Conditions: pH 6.5; boc-Val-Leu-Lys-AMC; 25±1° C. How it is done: as §1
(§3) Bovine cathepsin S, human cathepsin L, human cathepsin H and human cathepsin B were obtained from CN Biosciences. Recombinant human cathepsin S, human cathepsin K and human cathepsin X were obtained from Dr. Boris Turk (Josef Stefan Institute, Ljubljana, Slovenia). Unless otherwise stated, all peptidase activity assays were carried out in 10 mM bis-tris-propane (BTP), pH 6.5 containing 1 mM […], 5 mM 2-mercaptoethanol and 1 mM CaCl2. Human cathepsin H activity assays were carried out in 10 mM BTP pH 6.5, 142 mM […], 1 mM CaCl2, 1 mM EDTA, 1 mM DTT, 0.035 mM Zwittergent 3-16. […] The rate of conversion of substrate to product was derived from the slope of the increase in fluorescence monitored continuously over time.
(§4) The apparent inhibition constant (Ki) for each compound was determined on the basis that inhibition was reversible and occurred by a pure-competitive mechanism. The Ki values were calculated, from the dependence of enzyme activity as a function of inhibitor concentration, by direct regression analysis (Prism v 3.02) using Equation 2 (Cornish-Bowden, A., 1995.). […]
as §2

For another assay, the target named is T3, Human Cathepsin L (Homo sapiens, UniProt P07711).
T3 construct: purchased CN Biosciences
Put plainly: Cathepsin peptidase activity assay, human cathepsin L. Conditions: pH 6.5; Ac-Phe-Arg-AMC; 25±1° C. It is filed as biochemical. How it is done: as §1, §3, §4, §2

For another assay, the target named is T4, Human Cathepsin K (Homo sapiens, UniProt P43235).
T4 construct: Dr. Boris Turk (Josef Stefan Institute, Ljubljana, Slovenia), obtained from an academic laboratory, not a commercial vendor
T4 sequence (P43235 115-329): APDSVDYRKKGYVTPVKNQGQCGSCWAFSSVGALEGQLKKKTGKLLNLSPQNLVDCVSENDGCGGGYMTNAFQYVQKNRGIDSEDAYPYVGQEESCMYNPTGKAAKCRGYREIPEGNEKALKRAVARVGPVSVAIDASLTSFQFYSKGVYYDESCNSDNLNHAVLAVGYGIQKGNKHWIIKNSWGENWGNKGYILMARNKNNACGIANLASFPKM
Put plainly: Cathepsin peptidase activity assay, human cathepsin K. It is filed as biochemical. The conditions noted are these: pH 5.5; Z-Leu-Arg-AMC; 25±1° C. How it is done: as §1, §3, §4, §2

A further assay deals with Trypanosoma cruzi. The conditions noted are these: added to Trypanosoma cruzi-infected mammalian cell cultures; cited from earlier work.

T1 sequence (P25779 123-467): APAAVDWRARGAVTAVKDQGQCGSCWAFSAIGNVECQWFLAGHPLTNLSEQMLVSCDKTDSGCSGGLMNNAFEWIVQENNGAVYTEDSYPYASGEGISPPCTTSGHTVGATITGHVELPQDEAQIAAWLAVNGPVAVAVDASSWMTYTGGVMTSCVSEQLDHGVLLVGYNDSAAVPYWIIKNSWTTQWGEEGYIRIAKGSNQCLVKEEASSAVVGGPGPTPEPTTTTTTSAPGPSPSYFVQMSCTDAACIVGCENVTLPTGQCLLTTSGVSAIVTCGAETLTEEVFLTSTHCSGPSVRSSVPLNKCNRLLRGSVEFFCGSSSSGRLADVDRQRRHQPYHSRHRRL
T2 sequence (P25326 115-331): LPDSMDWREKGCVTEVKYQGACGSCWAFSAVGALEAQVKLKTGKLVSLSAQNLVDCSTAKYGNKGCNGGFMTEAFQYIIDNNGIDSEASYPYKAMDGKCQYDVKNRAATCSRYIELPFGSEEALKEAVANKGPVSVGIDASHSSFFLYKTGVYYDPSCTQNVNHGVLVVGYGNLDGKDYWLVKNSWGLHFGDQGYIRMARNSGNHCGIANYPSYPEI
T3 sequence (P07711 114-333): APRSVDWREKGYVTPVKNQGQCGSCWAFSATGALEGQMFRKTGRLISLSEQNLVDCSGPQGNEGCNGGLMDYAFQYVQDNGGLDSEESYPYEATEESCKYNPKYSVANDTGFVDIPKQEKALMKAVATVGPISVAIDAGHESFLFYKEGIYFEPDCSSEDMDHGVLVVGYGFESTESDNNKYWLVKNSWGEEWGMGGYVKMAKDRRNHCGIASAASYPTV

Take `O=C(Cn1ccnc1[N+](=O)[O-])NCc1ccccc1` [benznidazole]: the “cure during the acute phase of infection” value in assay [1] was approximately 60%.

As to `CC(C)C[C@H](NC(=O)c1cc2ccccc2s1)C(=O)N[C@]12CCC[C@H]1OCC2=O` [Example 6, (3aR, 6aR) Benzo[b]thiophene-2-carboxylic acid [3-methyl-1S-(3-oxo-hexahydrocyclopenta[b]furan-3a-ylcarbamoyl)butyl]amide], the inhibitory constant (Ki) (as a rule, the dissociation constant of the complex between target and ligand, obtained from inhibition or displacement) at Cruzipain is more than 20 µM; at Bovine Cathepsin S, more than 25 µM; on Human Cathepsin L, more than 10 µM; at Human Cathepsin K it was less than 2 µM.

Consider `O=C(N[C@@H](CC1CCCCC1)C(=O)N[C@]12CCC[C@H]1OCC2=O)c1ccsc1` [Example 7, (3aR, 6aR) Thiophene-3-carboxylic acid [2-cyclohexyl-1S-(3-oxo-hexahydrocyclopenta[b]furan-3a-ylcarbamoyl)ethyl]amide], for which the Ki is more than 50 µM on Cruzipain, less than 2 µM on Bovine Cathepsin S, more than 25 µM at Human Cathepsin L and more than 50 µM on Human Cathepsin K.

Take `CC(C)(C)c1ccc(C(=O)N[C@@H](Cc2ccc(O)cc2)C(=O)N[C@]23CCC[C@H]2OCC3=O)cc1` [Example 1, (3aR, 6aR) 4-tert-Butyl-N-[2-(4-hydroxyphenyl)-1S-(3-oxo-hexahydrocyclopenta[b]furan-3a-ylcarbamoyl)-ethyl]benzamide]: the inhibition constant Ki on Cruzipain was less than 2 µM; at Bovine Cathepsin S, more than 50 µM; on Human Cathepsin L, more than 20 µM; on Human Cathepsin K it was more than 100 µM.

In the case of `CC(NC(=O)C(Cc1ccccc1)NC(=O)OCc1ccccc1)C(=O)CF` (stereo not drawn) [Z-Phe-Ala-FMK], the “effect on replication and differentiation of the parasite” value in the assay on Trypanosoma cruzi was “blocked replication and differentiation of the parasite”.
